How the values were obtained:
[1] = system: neuropathic pain induced by spinal nerve ligation among rats; experiment: Paw pressure test (Randall & Selitto): mechanical hyperalgesia, spinal nerve ligation model; assay type: in vivo, rat
Procedure: (§1) The effects of the prolonged and preventive administration of memantine were first of all studied among rats. The model used was that of the ligation of the spinal nerve L5 (herein after called SNL for spinal nerve ligation) among rats. The emergence of neuropathic pain is assessed according to the following criteria: • the behavior of the rat following the spinal nerve ligation (SNL), • cognition, and • molecular events, including the expression of phosphorylated tyrosine 1472 of the NR2B sub-unit of the NMDA receptor at the spinal level.
(§2) The study was based on the comparison of the two main groups of animals. The first group was a control group. The rats of the control group, designated as “Sham” in the graphs, underwent no operation. They are used to assess the role of the injected substances on the individual, without there being any emergence of neuropathic pain.
(§3) Two sub-groups were set up in this group: • one sub-group treated with the vehicle which is a saline solution of NaCl 0.9% by mass, in a dose of 1 mL/kg/rat/day, by intraperitoneal injection; and • one sub-group treated with memantine in a dose of 20 mg/kg/rat/day, by intraperitoneal injection.
(§4) The second group of animals comprises rats having to undergo to spinal nerve ligation and therefore likely to develop neuropathic pain. This group is referred to in the graphs by the term SNL. As in the control group, this group is divided into two sub-groups: • one sub-group treated with the vehicle, which is a saline solution of NaCl 0.9% by mass, in a dose of 1 mL/kg/rat/day, by intraperitoneal injection; and • one sub-group treated by memantine in a dose of 20 mg/kg/rat/day, by intraperitoneal injection. […]
(§5) 7. Seven to 14 days after the surgery, the neuropathic, hyperalgesic or allodynic rats are selected according to their response to nociceptive and non-nociceptive stimulation assessed through appropriate tests (see paragraph 6.1.2). […]

[2] = system: neuropathic pain induced by spinal nerve ligation among rats; experiment: Von Frey test: mechanical allodynia, spinal nerve ligation model; assay type: in vivo; conditions: 20 mg/kg/rat/day i.p.
Procedure: as §1, §2, §3, §4, §5

[3] = system: tyrosine 1472 of the NR2B sub-unit of the NMDA receptor; experiment: Western blot of phosphorylated tyrosine 1472 of NR2B at the spinal level; assay type: in vivo, rat
Procedure: The effects of memantine are also evaluated in the expression of the phosphorylation of tyrosine 1472 of the NR2B sub-unit of the NMDA receptor at the spinal level by the Western-blot technique.
The rats are sacrificed by decapitation. The lumbar enlargements (L4-L6) are collected and subjected to lysis at 4° C. in 400 μL of stop buffer (50 mM Hepes, pH 7.5, containing 150 mM NaCl, 10 mM EDTA, 10 mM Na2P2O7, 2 mM Na3VO4, 100 mM NaF 1% Triton, 0.5 mM PMSF, 100 UI/mL Iniprol and 20 μM Leupeptine).
After sonication, two operations of centrifugation at 14,000 rpm at 4° C. are used to retrieve the proteins from the cytoplasm. The supernatant is retrieved and the proteins are determined by colorimetry (BC Assay UP40840A®, Interchim). They are denatured at 100° C. for five minutes in a buffer Tris 100 mM, pH 6.8, containing 6% SDS, 20% Glycerol and 20% bromophenol/(β-mercaptoethanol. Electrophoresis is used to separate the proteins on a polyacrylamide gel. The migration is done at 90 mA for two hours in the following buffer: Tris 50 mM, pH 7.4, containing 380 mM Glycine and 7 mM SDS. The proteins are then transferred to a nitrocellulose membrane (Millipore) for three hours in a buffer Tris 25 mM, pH 8.3, containing 190 mM Glycine, 20% methanol (percentage by volume). The protocols are carried out according to the recommendations of the supplier and differ according to the antibody considered.
After blocking of the non-specific sites with a solution containing 5% of non-fat dried milk, the membrane is incubated throughout the night at […] under agitation with the antibody of interest diluted in the blocking solution, namely an anti-pTyr^1472 NR2B antibody recognizing NR2B phosphorylated on tyrosine 1472 (dilution by volume=1/1000, Millipore).
The membrane is then hybridized for one hour under agitation with an antibody coupled with peroxydase (dilution by volume=1/10 000, Pierce) diluted in the blocking buffer.
The developing is done by chemiluminescence (Super Signal® West Pico
Chemiluminescent Substrate, Pierce). […]

CC12CC3CC(C)(C1)CC(N)(C3)C2 [memantine, 1-amino-3,5-dimethyl-adamantane]
vocalization threshold (mechanical hyperalgesia) ([1]; SNL rats, 20 mg/kg/rat/day i.p., four days before and three days after the operation): vocalization threshold very close to that of non-operated rats
vocalization threshold (mechanical hyperalgesia) ([1]; SNL rats, 20 mg/kg/rat/day i.p., post-operative injection only (three days after operation)): not enough to restore a normal vocalization threshold
vocalization threshold (mechanical hyperalgesia) ([1]; non-operated (Sham) rats, 20 mg/kg/rat/day intraperitoneal, versus vehicle): no influence whatsoever on the behavior of non-operated rats
threshold of response (mechanical allodynia) ([2]; SNL rats, 4 days preceding and 3 days following the operation): restores a threshold of response almost identical to that of non-operated rats
threshold of response (mechanical allodynia) ([2]; SNL rats, solely post-operative injection): not enough to restore the normal behavior of the rats
threshold of response (mechanical allodynia) ([2]; non-operated (Sham) rats, versus vehicle): no influence whatsoever on the behavior of non-operated rats
rate of phosphorylation of the tyrosine 1472 residue of NR2B ([3]; SNL rats treated preventively, spinal cord, Western blot): equivalent firstly to that of the non-treated Sham rats and is secondly far lower than that of the operated rats that have not been treated with memantine
phosphorylation of the tyrosine 1472 residue of NR2B ([3]; Sham rats, spinal cord, Western blot): does not significantly diminish the phosphorylation of the tyrosine 1472 residue
phosphorylation of the tyrosine residue at position 1472 (pTyr1472) of NR2B ([3]; summary statement): significantly inhibits the phosphorylation

— US20140378551A1, “Composition for the Prophylactic Treatment of Neuropathic Pain” (Universite d'Auvergne, priority 2011, published 2014)
